Measured values as given in ChEMBL document CHEMBL6182949 (J Med Chem, 2025).

Tests used:
hERG (KCNH2) = hERG (KCNH2) (Homo sapiens, UniProt Q12809); assay: Inhibition of hERG expressed in HEK293 cells at 1 uM by manual patch clamp assay relative to control; format: toxicity, cell-based; conditions: HEK293 cells expressing hERG
[1] = Metabolic stability in dog liver microsome assessed as half life at 1 uM measured up to 60 mins in presence of NADPH by LC-MS/MS analysis; format: ADME, Canis lupus familiaris; conditions: liver microsomes
[2] = target: T1, Protein cereblon/Interleukin-1 receptor-associated kinase 4 (Homo sapiens, UniProt Q9NWZ3+Q96SW2); assay: PROTAC activity at CRBN/IRAK4 in human THP-1 cells assessed as induction of IRAK4 degradation incubated for 24 hrs by HiBiT lytic reagent based analysis; format: cell-based
Target sequence in this assay (Q9NWZ3 whole entry): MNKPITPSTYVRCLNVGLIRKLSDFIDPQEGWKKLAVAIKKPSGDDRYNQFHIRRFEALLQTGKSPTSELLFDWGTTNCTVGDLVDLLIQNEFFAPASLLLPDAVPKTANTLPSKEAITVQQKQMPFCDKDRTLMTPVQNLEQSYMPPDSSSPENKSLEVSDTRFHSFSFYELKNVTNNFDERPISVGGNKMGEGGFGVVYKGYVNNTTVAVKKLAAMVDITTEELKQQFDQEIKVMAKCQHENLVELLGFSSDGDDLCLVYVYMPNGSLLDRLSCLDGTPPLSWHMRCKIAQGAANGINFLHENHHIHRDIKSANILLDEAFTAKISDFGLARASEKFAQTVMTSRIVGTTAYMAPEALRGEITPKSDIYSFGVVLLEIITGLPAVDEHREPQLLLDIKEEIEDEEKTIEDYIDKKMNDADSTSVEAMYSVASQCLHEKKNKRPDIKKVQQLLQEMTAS
Target sequence in this assay (Q96SW2 whole entry): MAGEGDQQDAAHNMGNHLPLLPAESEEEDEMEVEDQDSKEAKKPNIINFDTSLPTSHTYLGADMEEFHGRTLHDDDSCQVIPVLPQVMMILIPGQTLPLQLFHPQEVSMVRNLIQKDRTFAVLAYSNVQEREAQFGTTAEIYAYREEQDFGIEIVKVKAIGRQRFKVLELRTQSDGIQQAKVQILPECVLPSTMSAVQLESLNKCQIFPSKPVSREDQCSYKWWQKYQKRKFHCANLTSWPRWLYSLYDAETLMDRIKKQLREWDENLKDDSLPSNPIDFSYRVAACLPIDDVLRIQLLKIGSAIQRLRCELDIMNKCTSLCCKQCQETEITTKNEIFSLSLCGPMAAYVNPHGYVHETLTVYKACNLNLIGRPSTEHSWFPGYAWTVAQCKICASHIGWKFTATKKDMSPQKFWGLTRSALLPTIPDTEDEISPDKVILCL

[3] = Metabolic stability in human liver microsome assessed as half life at 1 uM measured up to 60 mins in presence of NADPH by LC-MS/MS analysis; format: ADME; conditions: liver microsomes
[4] = Metabolic stability in mouse liver microsome assessed as half life at 1 uM measured up to 60 mins in presence of NADPH by LC-MS/MS analysis; format: ADME; conditions: liver microsomes
[5] = target: T1, Protein cereblon/Interleukin-1 receptor-associated kinase 4; assay: PROTAC activity at CRBN/IRAK4 in human THP-1 cells assessed as induction of IRAK4 degradation incubated for 24 hrs by HiBiT lytic reagent based analysis relative to control; format: cell-based
Target sequence in this assay (Q96SW2 whole entry, looked up): as the sequence (Q96SW2 whole entry) above
Target sequence in this assay (Q9NWZ3 whole entry, looked up): as the sequence (Q9NWZ3 whole entry) above

Sequence of hERG (KCNH2) (Q12809 whole entry): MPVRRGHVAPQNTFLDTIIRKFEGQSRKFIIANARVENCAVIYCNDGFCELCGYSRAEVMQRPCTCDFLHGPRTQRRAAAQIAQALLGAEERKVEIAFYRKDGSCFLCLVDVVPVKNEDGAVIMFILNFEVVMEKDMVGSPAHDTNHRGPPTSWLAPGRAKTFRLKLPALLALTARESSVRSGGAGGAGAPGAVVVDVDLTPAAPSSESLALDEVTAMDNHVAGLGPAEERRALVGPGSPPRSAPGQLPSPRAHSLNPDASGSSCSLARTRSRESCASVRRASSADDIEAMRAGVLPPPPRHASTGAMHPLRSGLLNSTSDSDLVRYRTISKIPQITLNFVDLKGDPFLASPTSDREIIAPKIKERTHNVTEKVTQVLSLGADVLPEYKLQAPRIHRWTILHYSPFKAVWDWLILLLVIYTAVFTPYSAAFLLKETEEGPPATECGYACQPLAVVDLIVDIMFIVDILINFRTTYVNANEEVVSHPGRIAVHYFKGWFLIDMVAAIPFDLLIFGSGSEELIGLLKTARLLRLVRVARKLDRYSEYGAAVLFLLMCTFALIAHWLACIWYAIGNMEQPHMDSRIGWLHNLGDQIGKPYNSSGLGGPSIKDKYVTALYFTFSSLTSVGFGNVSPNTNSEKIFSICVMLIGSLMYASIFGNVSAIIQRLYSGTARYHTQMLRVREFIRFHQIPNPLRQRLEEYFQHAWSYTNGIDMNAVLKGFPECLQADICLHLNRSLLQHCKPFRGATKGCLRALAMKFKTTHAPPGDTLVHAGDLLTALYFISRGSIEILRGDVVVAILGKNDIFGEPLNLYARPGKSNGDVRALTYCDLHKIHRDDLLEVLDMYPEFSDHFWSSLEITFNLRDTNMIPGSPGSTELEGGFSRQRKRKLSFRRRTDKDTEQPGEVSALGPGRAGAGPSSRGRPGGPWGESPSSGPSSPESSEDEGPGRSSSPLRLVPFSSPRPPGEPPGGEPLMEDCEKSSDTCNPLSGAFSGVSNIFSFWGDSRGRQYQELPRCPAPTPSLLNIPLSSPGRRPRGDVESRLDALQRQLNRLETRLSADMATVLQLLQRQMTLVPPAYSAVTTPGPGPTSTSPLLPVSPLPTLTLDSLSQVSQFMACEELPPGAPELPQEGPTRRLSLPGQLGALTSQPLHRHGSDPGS

| Compound | half-life at 1 µM [1] [min] | DC50 [2] [nM] | half-life at 1 µM [3] [min] | half-life at 1 µM [4] [min] | Emax [5] [%] | inhibition at 1 µM (hERG (KCNH2)) [%] |
| --- | --- | --- | --- | --- | --- | --- |
| Cn1c(=O)n(C2CCC(=O)NC2=O)c2cccc(C#CCO[C@H]3CC[C@H](CN4CCC5(CC4)Oc4cc(N6CCC(CO)CC6)c(NC(=O)c6cnn7cccnc67)cc4C5=O)CC3)c21 (some centres not stated) | – | 1000 | – | – | 20 | – |
| Cn1c(=O)n(C2CCC(=O)NC2=O)c2cccc(C#CCO[C@H]3CC[C@H](CN4CCC5(CCc6cc(NC(=O)c7cnn8cccnc78)c(N7CCC(CO)CC7)cc6O5)CC4)CC3)c21 (some centres not stated) | – | 8.48 | – | – | 46 | – |
| Cn1c(=O)n(C2CCC(=O)NC2=O)c2cccc(C#CCO[C@H]3CC[C@@](F)(CN4CCC5(CC4)Cc4cc(NC(=O)c6cnn7cccnc67)c(N6CCC(CO)CC6)cc4O5)CC3)c21 (some centres not stated) | 1 | 14.8 | 7 | 16 | 91 | 8 |
| Cn1c(=O)n(C2CCC(=O)NC2=O)c2cccc(C#CCO[C@H]3CC[C@H](CN4CCC5(CC4)Oc4cc(NC(=O)c6cnn7cccnc67)c(N6CCC(CO)CC6)cc4O5)CC3)c21 (some centres not stated) | – | 10.4 | – | – | 78 | – |
| Cn1c(=O)n(C2CCC(=O)NC2=O)c2cccc(C#CCOC3CCN(C(=O)CN4CCC5(CC4)Cc4cc(NC(=O)c6cnn7cccnc67)c(N6CCC(CO)CC6)cc4O5)CC3)c21 (configuration not stated) | 6 | 1.92 | 4 | 21 | – | – |
| Cn1c(=O)n(C2CCC(=O)NC2=O)c2cccc(C#CCO[C@H]3CC[C@H](CN4CCC5(CC4)Cc4cc(NC(=O)c6cnn7cccnc67)c(OC(F)F)cc4O5)CC3)c21 (some centres not stated) | – | 13 | – | – | 83 | – |
| Cn1c(=O)n(C2CCC(=O)NC2=O)c2cccc(C#CCO[C@H]3CC[C@H](CN4CCC5(CC4)Cc4cc(NC(=O)c6cnn7cccnc67)c(OCCC(C)(C)O)cc4O5)CC3)c21 (some centres not stated) | – | 9.37 | – | – | 49 | – |

Further lines, with some results ahead:

| half-life at 1 µM [1] [min] | DC50 [2] [nM] | half-life at 1 µM [3] [min] | half-life at 1 µM [4] [min] | Emax [5] [%] | Compound | inhibition at 1 µM (hERG (KCNH2)) [%] |
| --- | --- | --- | --- | --- | --- | --- |
| 58 | 3.69 | 20 | 123 | 86 | Cn1c(=O)n(C2CCC(=O)NC2=O)c2cccc(C#CCO[C@H]3CC[C@@H](CN4CCC5(CC4)Cc4cc(NC(=O)c6coc7cccnc67)c(N6CCC(CO)CC6)cc4O5)CC3)c21 (some centres not stated) | 29 |
| 35 | 7.79 | 31 | 33 | 90 | Cn1c(=O)n(C2CCC(=O)NC2=O)c2cccc(C#CCO[C@H]3CC[C@@H](CN4CCC5(Cc6cc(NC(=O)c7cnn8cccnc78)c(N7CCC(CO)CC7)cc6O5)C4)CC3)c21 (some centres not stated) | 29 |
| – | 3.9 | – | – | 62 | COCC1CCN(c2cc3c(cc2NC(=O)c2cnn4cccnc24)CC2(CCN(C[C@H]4CC[C@H](OCC#Cc5cccc6c5n(C)c(=O)n6C5CCC(=O)NC5=O)CC4)CC2)O3)CC1 (some centres not stated) | – |
| – | 6.92 | – | – | 68 | CN(CCCO)c1cc2c(cc1NC(=O)c1cnn3cccnc13)CC1(CCN(C[C@H]3CC[C@H](OCC#Cc4cccc5c4n(C)c(=O)n5C4CCC(=O)NC4=O)CC3)CC1)O2 (some centres not stated) | – |
| > 184 | 2.78 | 39 | 63 | 86 | Cn1c(=O)n(C2CCC(=O)NC2=O)c2cccc(C#CCO[C@H]3CC[C@H](C(=O)N4CCC5(CC4)Cc4cc(NC(=O)c6cnn7cccnc67)c(N6CCC(CO)CC6)cc4O5)CC3)c21 (some centres not stated) | 2 |
| – | 6.38 | – | – | 85 | Cn1c(=O)n(C2CCC(=O)NC2=O)c2cccc(C#CCO[C@H]3CC[C@H](CN4CCC5(CC4)Cc4cc(NC(=O)c6cnn7cccnc67)c(N6CCC(F)CC6)cc4O5)CC3)c21 (some centres not stated) | – |
| > 184 | 6.02 | 69 | 101 | 85 | Cc1cc(-c2nc(C(=O)Nc3cc4c(cc3N3CCC(CO)CC3)OC3(CCN(C[C@H]5CC[C@H](OCC#Cc6cccc7c6n(C)c(=O)n7C6CCC(=O)NC6=O)CC5)CC3)C4)co2)ccn1 (some centres not stated) | 12 |
| – | 6.44 | – | – | 44 | CN(CCO)c1cc2c(cc1NC(=O)c1cnn3cccnc13)CC1(CCN(C[C@H]3CC[C@H](OCC#Cc4cccc5c4n(C)c(=O)n5C4CCC(=O)NC4=O)CC3)CC1)O2 (some centres not stated) | – |
